# Data from BindingDB's records for doi:10.1021/acschembio.7b00369 (Baylor College of Medicine, 2017).
# pEC50: −log10 of the molar value. Where “and” joins values, the source holds several entries; their conditions need not be identical. Equal entries are not always repeated.
# Columns and labels:
# Assay in all cases: Microfluidic Mobility-Shift Assay
# Conditions in all cases: pH 7
# [1] = molecular target: T1, Isoform Beta of cGMP-dependent protein kinase 1 [1-351,G182E] (Human, UniProt Q13976, G182E)
# T1 construct: 1-351
# [2] = molecular target: T2, cGMP-dependent protein kinase 2 [41-418,G356E] (Human, UniProt Q13237, G356E)
# T2 construct: 41-418
# [3] = molecular target: T3, cGMP-dependent protein kinase 2 (Homo sapiens, UniProt Q13237)
# T3 sequence (Q13237 whole entry): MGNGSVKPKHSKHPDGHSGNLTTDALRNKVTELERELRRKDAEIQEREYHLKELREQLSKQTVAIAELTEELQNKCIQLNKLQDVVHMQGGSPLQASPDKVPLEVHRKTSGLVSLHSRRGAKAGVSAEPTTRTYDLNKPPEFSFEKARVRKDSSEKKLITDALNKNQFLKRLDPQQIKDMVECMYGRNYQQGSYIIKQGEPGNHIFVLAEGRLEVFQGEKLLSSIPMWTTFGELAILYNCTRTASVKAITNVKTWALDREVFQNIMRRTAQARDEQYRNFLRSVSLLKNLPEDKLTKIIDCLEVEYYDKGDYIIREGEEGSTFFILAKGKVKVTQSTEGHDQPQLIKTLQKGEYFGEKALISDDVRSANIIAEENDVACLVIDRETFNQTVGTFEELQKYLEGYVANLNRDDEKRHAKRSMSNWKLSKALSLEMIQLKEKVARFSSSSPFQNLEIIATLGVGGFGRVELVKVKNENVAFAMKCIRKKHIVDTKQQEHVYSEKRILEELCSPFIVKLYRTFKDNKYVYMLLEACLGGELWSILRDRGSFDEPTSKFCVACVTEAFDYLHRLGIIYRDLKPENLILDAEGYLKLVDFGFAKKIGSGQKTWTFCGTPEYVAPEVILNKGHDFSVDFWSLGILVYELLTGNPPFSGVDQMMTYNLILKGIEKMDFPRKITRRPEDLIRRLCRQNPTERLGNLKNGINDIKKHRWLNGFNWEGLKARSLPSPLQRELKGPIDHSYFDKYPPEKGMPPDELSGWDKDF
# [4] = molecular target: T4, Isoform Beta of cGMP-dependent protein kinase 1 [5-676,G306E] (Human, UniProt Q13976, G306E)
# T4 construct: 5-676
# [5] = molecular target: T5, cGMP-dependent protein kinase 2 [41-418] (Human, UniProt Q13237)
# T5 construct: 41-418
# T5 sequence (Q13237 whole entry): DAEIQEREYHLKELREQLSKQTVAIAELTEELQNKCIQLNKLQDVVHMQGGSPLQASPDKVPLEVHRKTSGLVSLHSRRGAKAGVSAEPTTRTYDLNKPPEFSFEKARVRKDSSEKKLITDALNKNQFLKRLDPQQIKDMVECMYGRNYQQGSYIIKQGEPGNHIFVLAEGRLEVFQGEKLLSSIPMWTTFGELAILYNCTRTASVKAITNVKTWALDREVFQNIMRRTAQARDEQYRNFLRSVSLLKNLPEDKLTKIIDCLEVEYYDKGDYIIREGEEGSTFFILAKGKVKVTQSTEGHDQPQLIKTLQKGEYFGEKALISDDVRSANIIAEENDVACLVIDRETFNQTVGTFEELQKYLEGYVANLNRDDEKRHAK
# [6] = molecular target: T6, Isoform Beta of cGMP-dependent protein kinase 1 [1-351] (Human, UniProt Q13976)
# T6 construct: 1-351
# T6 sequence (Q13976 whole entry): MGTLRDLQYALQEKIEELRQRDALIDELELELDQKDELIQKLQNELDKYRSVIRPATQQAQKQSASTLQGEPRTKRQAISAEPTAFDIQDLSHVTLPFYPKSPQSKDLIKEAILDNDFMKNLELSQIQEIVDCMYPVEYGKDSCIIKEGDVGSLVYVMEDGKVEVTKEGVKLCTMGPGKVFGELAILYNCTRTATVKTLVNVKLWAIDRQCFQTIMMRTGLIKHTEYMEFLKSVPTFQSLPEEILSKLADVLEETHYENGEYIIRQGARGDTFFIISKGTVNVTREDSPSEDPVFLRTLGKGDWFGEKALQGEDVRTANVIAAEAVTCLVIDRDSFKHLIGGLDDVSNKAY
# [7] = molecular target: T7, Isoform Beta of cGMP-dependent protein kinase 1 [1-351,G306E] (Human, UniProt Q13976, G306E)
# T7 construct: 1-351
# [8] = molecular target: T8, cGMP-dependent protein kinase 2 [41-418,G232E] (Human, UniProt Q13237, G232E)
# T8 construct: 41-418
# T8 sequence (Q13237 41-418 G232E): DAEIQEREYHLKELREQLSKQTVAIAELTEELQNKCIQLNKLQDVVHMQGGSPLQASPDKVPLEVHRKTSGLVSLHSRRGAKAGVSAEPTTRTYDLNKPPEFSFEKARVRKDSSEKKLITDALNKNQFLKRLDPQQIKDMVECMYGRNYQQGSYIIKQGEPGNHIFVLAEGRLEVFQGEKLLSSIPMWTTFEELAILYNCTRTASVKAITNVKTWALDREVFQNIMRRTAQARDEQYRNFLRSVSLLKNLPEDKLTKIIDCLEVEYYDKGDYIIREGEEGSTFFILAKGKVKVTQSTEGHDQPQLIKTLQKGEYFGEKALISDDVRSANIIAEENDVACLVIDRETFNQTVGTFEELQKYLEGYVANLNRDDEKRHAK
# T4 sequence (Q13976 as listed by the source G306E): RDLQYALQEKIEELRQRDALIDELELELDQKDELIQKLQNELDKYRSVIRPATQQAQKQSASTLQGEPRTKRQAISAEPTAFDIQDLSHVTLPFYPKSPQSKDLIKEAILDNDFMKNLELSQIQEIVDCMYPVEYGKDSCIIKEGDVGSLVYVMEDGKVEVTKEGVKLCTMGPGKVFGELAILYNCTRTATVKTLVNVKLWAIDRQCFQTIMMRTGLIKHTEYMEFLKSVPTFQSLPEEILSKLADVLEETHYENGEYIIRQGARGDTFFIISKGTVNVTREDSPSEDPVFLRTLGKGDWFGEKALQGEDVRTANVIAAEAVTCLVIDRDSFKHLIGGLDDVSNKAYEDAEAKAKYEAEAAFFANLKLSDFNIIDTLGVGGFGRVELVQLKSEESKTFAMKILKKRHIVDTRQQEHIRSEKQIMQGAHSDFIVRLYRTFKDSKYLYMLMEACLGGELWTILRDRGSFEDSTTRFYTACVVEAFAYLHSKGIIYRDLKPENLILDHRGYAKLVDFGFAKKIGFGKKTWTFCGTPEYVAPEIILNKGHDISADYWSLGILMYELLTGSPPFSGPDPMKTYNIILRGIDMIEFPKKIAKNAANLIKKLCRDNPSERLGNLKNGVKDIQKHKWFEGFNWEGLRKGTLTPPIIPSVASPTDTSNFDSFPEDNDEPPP
# T7 sequence (Q13976 as listed by the source G306E): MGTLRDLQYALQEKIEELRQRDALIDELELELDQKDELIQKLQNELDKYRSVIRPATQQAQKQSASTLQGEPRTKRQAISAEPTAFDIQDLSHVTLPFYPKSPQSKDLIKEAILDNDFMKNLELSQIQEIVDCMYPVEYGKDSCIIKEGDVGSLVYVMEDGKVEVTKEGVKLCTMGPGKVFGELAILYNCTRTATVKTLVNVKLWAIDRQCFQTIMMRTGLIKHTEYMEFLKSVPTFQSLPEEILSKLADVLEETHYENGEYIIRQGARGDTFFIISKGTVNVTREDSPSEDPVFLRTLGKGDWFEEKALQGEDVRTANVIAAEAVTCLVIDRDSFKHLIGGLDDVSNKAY
# T1 sequence (Q13976 as listed by the source G182E): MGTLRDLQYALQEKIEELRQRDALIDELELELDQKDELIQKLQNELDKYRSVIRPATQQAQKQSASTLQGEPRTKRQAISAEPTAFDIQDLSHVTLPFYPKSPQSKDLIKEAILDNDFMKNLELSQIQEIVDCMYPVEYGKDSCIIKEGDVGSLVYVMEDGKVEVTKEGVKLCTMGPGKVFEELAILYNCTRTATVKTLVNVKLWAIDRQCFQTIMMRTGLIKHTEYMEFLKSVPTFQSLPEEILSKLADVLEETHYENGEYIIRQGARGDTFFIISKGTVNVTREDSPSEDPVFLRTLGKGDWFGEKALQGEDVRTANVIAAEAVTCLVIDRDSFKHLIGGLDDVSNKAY
# T2 sequence (Q13237 41-418 G356E): as the sequence (Q13237 41-418 G232E) above, with E192G, G316E counted along it
SMILES,pEC50 [1],pEC50 [2],pEC50 [3],pEC50 [4],pEC50 [5],pEC50 [6],pEC50 [7],pEC50 [8]
"Nc1nc(O)c2nc(Br)n([C@@H]3O[C@@H]4COP(=O)(O)O[C@H]4[C@H]3O)c2n1 [2-amino-8-bromo-9-[(2R,4aR,6R,7R,7aS)-2,7-dihydroxy-2-oxotetrahydro-2H,4H-2lambda~5~-furo[3,2-d][1,3,2]dioxaphosphinin-6-yl]-1,9-dihydro-6H-purin-6-one]",6.12,7.52,7.24,6.69,7.70,6.65,> 8.70,7.96
Nc1nc(=O)c2nc(Sc3ccc(Cl)cc3)n([C@@H]3O[C@@H]4COP(=O)(O)O[C@H]4[C@H]3O)c2[nH]1 [8-pCP-cGMP],6.48 and 6.69,–,–,6.43 and 6.60,–,6.79 and 6.67,8.38 and 8.11,6.74 and 6.94
O=c1c2ncn([C@@H]3O[C@@H]4COP(=O)(O)O[C@H]4[C@H]3O)c2[nH]c2nc(-c3ccccc3)cn12 [PET-cGMP],8.24,8.28,6.65,7.74,6.71,8.42,> 8.70,5.71
